Earlier results on four compounds are cited in patent publication US6676956B1, “Oil-in-water emulsion for protecting human organs against peroxidation” (Fresenius Kabi Austria GmbH, priority 1998, dated 2004).

In one data set the test system is skeletal muscles. The following applies: 500 mg given directly before reperfusion.
For data set [1] the following is noted: per 1 g of the form.

Consider `CC(=O)Oc1c(C)c(C)c2c(c1C)CCC(C)(CCCC(C)CCCC(C)CCCC(C)C)O2` (racemic) [all-rac-tocopherolacetate], for which, in the data set on skeletal muscles, the “increase in lipid peroxides in the serum (TBARS)” value is recorded as “prevented”, the “increase in serum creatine-phosphokinase during the reperfusion phase” value is recorded as “suppressed” and the ischaemia-reperfusion damage entry was “reduced”.
For the compound `Cc1c(C)c2c(c(C)c1O)CCC(C)(CCCC(C)CCCC(C)CCCC(C)C)O2` (racemic) [all-rac-α-tocopherol, 2,5,7, 8 tetramethyl-2-(4′,8′,12′-trimethyltridecyl)chroman-6-ol], the “effectiveness of 1 g corresponds to that of RRR-α-tocopherol” value in data set [1] was 0.74 g. Further, the “α-tocopherol level in the cell-associated aortic endothelium” value in the data set on lipidperoxidation (0.5 mg/day via central vein catheter for 3 days) was “significant increase”.
With `Cc1c(C)c2c(c(C)c1O)CCC(C)(CCCC(C)CCCC(C)CCCC(C)C)O2` (single isomer, unassigned) [SRR-stereoisomer, 2,5,7, 8 tetramethyl-2-(4′,8′,12′-trimethyltridecyl)chroman-6-ol], the “effectiveness of 1 g corresponds to that of RRR-α-tocopherol” value in data set [1] is given as 0.31 g.
Consider vitamin E, for which the “vitamin E concentration in the plasma” value in the data set on lipidperoxidation (0.5 mg/day intravenously for 3 days vs 1.0 mg/day orally) is “significantly higher”. The “concentration of TBARS in the plasma” value in the data set on lipidperoxidation (0.5 mg/day intravenously for 3 days vs control animals) is listed as “significantly lower”.
